Test results reported in PMC10484922, “Discovery of a selective and biologically active low-molecular weight antagonist of human interleukin-1β” (Nature Communications, 2023).
“And” between values parts separate entries of the source, which are not always exact repeats. Equal values may be shown once. Read-outs that look alike come from different tables or passages of the source.

How the values were obtained:
[1] = system: normal human dermal fibroblasts stimulated with hIL-1β; assay: Human fibroblast IL-6 release assay, hIL-1β stimulated; assay type: cell-based; set-up: IL-6, average / inhibition, replicates of EXP1, EXP2, EXP3 / inhibition, Mean / IL-1beta (mean, SD): mean readout (IL-6 release): unit not given here; conditions: for inhibition, Mean / inhibition, replicates of EXP1, EXP2, EXP3: Figure 3b; for Mean OD (OD 450nm) / IL-1beta (mean, SD): mean readout (IL-6 release): Figure 3c; for Mean OD (OD 450nm): compound 500 nM; for IL-1beta (mean, SD): mean readout (IL-6 release): compound @ 50uM
Procedure, shortened: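 Normal human dermal fibroblasts (neonatal, passage ≤14) treated with graded hIL-1α or hIL-1β that had been premixed 1 h with compound, then incubated 6 h. Secreted IL-6 in supernatant quantified by ELISA or HTRF.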

[2] = system: normal human dermal fibroblasts stimulated with hIL-1α; assay: Human fibroblast IL-6 release assay, hIL-1α stimulated; assay type: cell-based; set-up: IL-1alpha (mean, SD): mean readout (IL-6 release): unit not given here; conditions: for Mean OD (OD 450nm) / IL-1alpha (mean, SD): mean readout (IL-6 release): Figure 3c; for Mean OD (OD 450nm): compound 500 nM; for IL-1alpha (mean, SD): mean readout (IL-6 release): compound @ 50uM
Experimental: We used HEK-Blue™ IL-1β cells that respond specifically to IL-1 (# hkb-il1b, InvivoGen). These cells can detect IL-1α and IL-1β, as these cytokines bind to the same receptor, IL-1R1. They express a Seap reporter gene under the control of the IFN-β minimal promoter fused to five NF-kappaB and five AP-1 binding sites. Thirty microliters (300,000 cells/ml) per well of a 384-well plate were plated overnight. Cells were then stimulated with graded concentrations of cytokines (hIL-1α or hIL-1β) in the absence or presence of canakinumab (Ilaris®, ILARI LYVI 150MG 22GLW.012, batch U003 0409)[22], anakinra (Kineret®, 100 mg/0.67 ml injectable solution, Sobi)[23], or compound (S)-2 (compounds were pre-mixed for 1 h with the cytokine prior to addition to cells) and further incubated overnight before assessment of Seap activity.
Normal human dermal fibroblasts (NHDF) from Clonetics^TM (LONZA, Cat # CC-2509 (NHDF-Neo), Lot # 0000234242, used at passage ≤14) were seeded at a density of 5000 cells/well in 100 μL of culture medium using 96-well plates (flat bottom, TCT). Treatment with cytokines/compounds was performed as described above. Cells were incubated for another 6 h and were subsequently spun down (320g/3 min). IL-6 was measured in the supernatant by ELISA (BioLegend, # 430503) or HTRF (Cisbio, #62HIL06PEH).

IL-1β = IL-1β (Homo sapiens, UniProt P01584); assay: protein-observed 1H-13C-HMQC NMR binding (I/Io of Leu60 Cδ1H3); set-up: Mature hIL-1β was expressed in Escherichia coli; made in house; host or cells: Escherichia coli BL21 (DE3), pET17b; conditions: hIL-1β 50 µM, 500 µM compound
[3] = (S)-2 concentration 0.05 (unit not given)
[4] = (S)-2 concentration 0.4 (unit not given)
[5] = (S)-2 concentration 1 (unit not given)
[6] = (S)-2 concentration 4 (unit not given)
[7] = (S)-2 concentration 11 (unit not given)
[8] = (S)-2 concentration 33 (unit not given)
[9] = (S)-2 concentration 100 (unit not given)

IL-1β, sequence (P01584 117-269): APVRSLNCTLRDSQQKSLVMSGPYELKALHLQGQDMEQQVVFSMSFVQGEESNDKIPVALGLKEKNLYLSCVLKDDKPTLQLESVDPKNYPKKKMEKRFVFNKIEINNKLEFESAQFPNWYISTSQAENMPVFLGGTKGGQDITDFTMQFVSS

## Cc1ccc2c(c1)NC(=O)[C@@]2(c1cn[nH]c1)c1cc(-c2ccc(C(=O)O)cc2C(=O)O)ccc1O [Compound (S)-2]
[1]; [3]
  inhibition, Mean: 11.8111
  inhibition, replicates of EXP1, EXP2, EXP3: 1.099 and 7.654 and 32.9874 and 11.239 and 6.325 and 15.536 and -5.489 and 15.493 and 21.4551
[1]; (S)-2 concentration 0.1 (unit not given)
  inhibition, replicates of EXP1, EXP2, EXP3: 18.345 and 33.8012 and 24.896 and 0.607 and 18.6036 and 23.695 and -10.879 and 23.6096
[1]; [4]
  inhibition, Mean: 16.1795
  inhibition, replicates of EXP1, EXP2, EXP3: 6.922 and -13.568 and 28.7773 and 15.933 and -2.853 and 20.6147 and 21.633 and -16.264 and 22.2291
[1]; [5]
  inhibition, Mean: 20.6552
  inhibition, replicates of EXP1, EXP2, EXP3: 28.445 and 6.394 and 37.2847 and 8.462 and 8.741 and 33.0478 and 30.776 and 11.643 and 21.1029
[1]; [6]
  inhibition, Mean: 41.6476
  inhibition, replicates of EXP1, EXP2, EXP3: 30.652 and 40.964 and 60.1425 and 37.001 and 32.643 and 49.8155 and 34.125 and 37.671 and 51.8132
[1]; [7]
  inhibition, Mean: 62.727
  inhibition, replicates of EXP1, EXP2, EXP3: 59.128 and 61.883 and 67.9669 and 57.955 and 65.648 and 69.7834 and 54.055 and 63.991 and 64.1355
[1]; [8]
  inhibition, Mean: 85.133
  inhibition, replicates of EXP1, EXP2, EXP3: 83.359 and 83.395 and 85.1881 and 82.704 and 84.749 and 90.3418 and 80.717 and 88.643 and 87.1001
[1]; [9]
  inhibition, Mean: 92.537
  inhibition, replicates of EXP1, EXP2, EXP3: 91.3 and 94.175 and 93.9868 and 93.148 and 93.985 and 90.8655 and 91.665 and 91.77 and 91.9373
[1]; hu IL-1b 0 pg/mL
  Mean OD (OD 450nm): 0.033
  IL-1beta (mean, SD): mean readout (IL-6 release): 0
[1]; hu IL-1b 40 pg/mL
  Mean OD (OD 450nm): 0.067
  IL-1beta (mean, SD): mean readout (IL-6 release): 0
[1]; hu IL-1b 80 pg/mL
  Mean OD (OD 450nm): 0.219
  IL-1beta (mean, SD): mean readout (IL-6 release): 866.8
[1]; hu IL-1b 120 pg/mL
  Mean OD (OD 450nm): 0.313
  IL-1beta (mean, SD): mean readout (IL-6 release): 1562
[1]; hu IL-1b 160 pg/mL
  Mean OD (OD 450nm): 0.45
  IL-1beta (mean, SD): mean readout (IL-6 release): 2574.8
[1]; hu IL-1b 200 pg/mL
  Mean OD (OD 450nm): 0.463
  IL-1beta (mean, SD): mean readout (IL-6 release): 2669.4
[1]; Homo sapiens, Fibroblast, 6 h, human dermal fibroblasts, hIL-1β, 6 h, read-out: IL-6 release IC50
  IC50: 7.9 ± 2 µM
[1]; human dermal fibroblasts, hIL-1β, 6 h
  IL-6 release IC50: single digit micromolar range
[1]; source data, read-out: IL-6 IC50, individual experiments
  IC50: 18.8 µM and 26.2 µM and 7.43 µM and 6.22 µM and 5.77 µM and 5.73 µM and 4.59 µM and 7.91 µM and 8.11 µM and 5.61 µM and 6.38 µM
[2]
  effect on hIL-1α driven IL-6 release: had no effect on hIL-1α driven IL-6 release
[2]; hu IL-1A 0 pg/mL
  Mean OD (OD 450nm): 0.031
[2]; hu IL-1A 40 pg/mL
  Mean OD (OD 450nm): 0.372
[2]; hu IL-1A 80 pg/mL
  Mean OD (OD 450nm): 0.573
[2]; hu IL-1A 120 pg/mL
  Mean OD (OD 450nm): 0.693
[2]; hu IL-1A 160 pg/mL
  Mean OD (OD 450nm): 0.736
[2]; hu IL-1A 200 pg/mL
  Mean OD (OD 450nm): 0.751
[2]; hu IL-1a 0 pg/mL
  IL-1alpha (mean, SD): mean readout (IL-6 release): 0
[2]; hu IL-1a 40 pg/mL
  IL-1alpha (mean, SD): mean readout (IL-6 release): 1994.8
[2]; hu IL-1a 80 pg/mL
  IL-1alpha (mean, SD): mean readout (IL-6 release): 3486.9
[2]; hu IL-1a 120 pg/mL
  IL-1alpha (mean, SD): mean readout (IL-6 release): 4374.4
[2]; hu IL-1a 160 pg/mL
  IL-1alpha (mean, SD): mean readout (IL-6 release): 4691.2
[2]; hu IL-1a 200 pg/mL
  IL-1alpha (mean, SD): mean readout (IL-6 release): 4802.2
IL-1β
  I/Io (ratio of peak intensities of Leu60 Cδ1H3 in 1H-13C-HMQC spectra in presence and absence of ligand): <0.1
